The assay concerns AKR/Lw mice, AKR lymphoma ip, median survival T/C. Description: NCI In Vivo Anticancer Drug Screen. Data for tumor model Lymphoma AKR (Transplanted) (intraperitoneal) in AKR/Lw mice. To be noted: endpoint: median survival time, higher = longer survival. As to the method:
The antitumor activity of compounds was measured in mice bearing transplantable tumors. Survival or tumor size were measured and the results are expressed as the measurement made in the treated group (T) divided by the measurement made in the vehicle treated control group (C). The tumor model used in this assay is Lymphoma AKR (Transplanted) (intraperitoneal) in AKR/Lw mice

The mark [1] stands for this setting: dose: 75.0 mg/kg/injection, schedule: Q04DX003 (ip), vehicle: saline.
[2] abbreviates: dose: 150.0 mg/kg/injection, schedule: Q04DX003 (ip), vehicle: saline.
The mark [3] stands for this setting: dose: 100.0 mg/kg/injection, schedule: Q01DX001 (ip), vehicle: saline.
[4] abbreviates: dose: 200.0 mg/kg/injection, schedule: Q01DX001 (ip), vehicle: saline.
Where [5] appears, read: dose: 400.0 mg/kg/injection, schedule: Q01DX001 (ip), vehicle: saline.

Several values for one entry are separate records, joined by “and”; a condition that tells them apart may be missing. Equal values may be shown once. Toxic doses and inconclusive results are not listed.

On to `CC(CN1CC(=O)NC(=O)C1)N1CC(=O)NC(=O)C1` (centres undefined), for which the T/C runs as follows: (dose: 0.5 mg/kg/injection, schedule: Q01DX009 (ip), vehicle: saline) 103 % of control; (dose: 1.6 mg/kg/injection, schedule: Q01DX009 (ip), vehicle: saline) 116 % of control; (dose: 2.0 mg/kg/injection, schedule: Q01DX009 (ip), vehicle: saline) 109 % of control; (dose: 2.5 mg/kg/injection, schedule: Q01DX009 (ip), vehicle: saline) 90 % of control; (dose: 3.1 mg/kg/injection, schedule: Q01DX009 (ip), vehicle: saline) 110 % of control and 113 % of control; (dose: 4.0 mg/kg/injection, schedule: Q01DX009 (ip), vehicle: saline) 181 % of control. Moreover, the T/C (dose: 5.0 mg/kg/injection, schedule: Q01DX009 (ip), vehicle: saline) was 106 % of control; the T/C (dose: 10.0 mg/kg/injection, schedule: Q01DX009 (ip), vehicle: saline) is 120 % of control; the T/C (dose: 12.5 mg/kg/injection, schedule: Q04DX003 (ip), vehicle: saline) was 88 % of control and 90 % of control; the T/C (dose: 20.0 mg/kg/injection, schedule: Q01DX009 (ip), vehicle: saline) is 150 % of control; the T/C (dose: 25.0 mg/kg/injection, schedule: Q01DX001 (ip), vehicle: saline) is 94 % of control; the T/C (dose: 25.0 mg/kg/injection, schedule: Q04DX003 (ip), vehicle: saline) was 105 % of control and 107 % of control. The T/C (dose: 30.0 mg/kg/injection, schedule: Q01DX009 (ip), vehicle: saline) was 152 % of control; the T/C (dose: 35.0 mg/kg/injection, schedule: Q01DX009 (ip), vehicle: saline) was 152 % of control; the T/C (dose: 50.0 mg/kg/injection, schedule: Q01DX001 (ip), vehicle: saline) is 97 % of control and 106 % of control; the T/C (dose: 50.0 mg/kg/injection, schedule: Q04DX003 (ip), vehicle: saline) was 92 % of control and 100 % of control; the T/C under setting [1] was 94 % of control; the T/C (dose: 150.0 mg/kg/injection, schedule: Q01DX001 (ip), vehicle: water) was 108 % of control. Further, the T/C is 123 % of control under setting [2]; 108 % of control (dose: 200.0 mg/kg/injection, schedule: Q01DX009 (ip), vehicle: saline); 106 % of control (dose: 300.0 mg/kg/injection, schedule: Q01DX009 (ip), vehicle: saline); 100 % of control (dose: 300.0 mg/kg/injection, schedule: Q04DX003 (ip), vehicle: saline); 100 % of control (dose: 400.0 mg/kg/injection, schedule: Q01DX009 (ip), vehicle: saline); 111 % of control (dose: 600.0 mg/kg/injection, schedule: Q01DX001 (ip), vehicle: water).
`C/C(=C\Cl)CN1C(=O)c2ccccc2C1=O`: the T/C under setting [3] is 93 % of control, the T/C under setting [4] is 102 % of control and the T/C under setting [5] is 93 % of control.
Take `C[C@@H]1C[C@H]2[C@@H]3CCC4=CC(=O)C=C[C@]4(C)[C@@]3(F)[C@@H](O)C[C@]2(C)[C@@]1(O)C(=O)CO`: the T/C is 121 % of control (dose: 0.25 mg/kg/injection, schedule: Q01DX004 (sc), vehicle: saline); 103 % of control and 110 % of control (dose: 0.5 mg/kg/injection, schedule: Q01DX004 (sc), vehicle: saline); 103 % of control and 121 % of control (dose: 1.0 mg/kg/injection, schedule: Q01DX004 (sc), vehicle: saline); 89 % of control (dose: 1.8 mg/kg/injection, schedule: Q01DX004 (sc), vehicle: saline); 103 % of control (dose: 2.6 mg/kg/injection, schedule: Q01DX004 (sc), vehicle: saline); 103 % of control (dose: 4.0 mg/kg/injection, schedule: Q01DX004 (sc), vehicle: saline). Moreover, the T/C (dose: 4.5 mg/kg/injection, schedule: Q01DX004 (sc), vehicle: saline) is 96 % of control.
In the case of `COc1cc2c(cc1OC)[C@H]1CNC[C@H]1[C@@H](c1ccccc1)C2`, the T/C is, setting by setting: under setting [1], 110 % of control; under setting [3], 105 % of control; under setting [2], 103 % of control; under setting [4], 100 % of control; under setting [5], 97 % of control.
As to `CN(CCOc1ccccc1O)CCOc1ccccc1O`, the T/C runs as follows: (dose: 100.0 mg/kg/injection, schedule: Q01DX001 (ip), vehicle: Klucel (hydroxypropylcellulose) (HPC)) 105 % of control; (dose: 100.0 mg/kg/injection, schedule: Q04DX003 (ip), vehicle: Klucel (hydroxypropylcellulose) (HPC)) 100 % of control; (dose: 200.0 mg/kg/injection, schedule: Q01DX001 (ip), vehicle: Klucel (hydroxypropylcellulose) (HPC)) 107 % of control; (dose: 200.0 mg/kg/injection, schedule: Q04DX003 (ip), vehicle: Klucel (hydroxypropylcellulose) (HPC)) 92 % of control; (dose: 400.0 mg/kg/injection, schedule: Q01DX001 (ip), vehicle: Klucel (hydroxypropylcellulose) (HPC)) 105 % of control.
As for `CCCCCCCCC(=O)N1CC(C)OC(C)C1` (centres undefined), the T/C is 100 % of control under setting [3], 94 % of control under setting [4] and 100 % of control under setting [5].
Consider `NC(Cc1ccc([N+](=O)[O-])cc1)C(=O)O` (centres undefined), for which the T/C is 94 % of control under setting [3] and 96 % of control under setting [4].

The values are drawn from PubChem BioAssay AID190 (DTP/NCI, 2004).
